Reference: US20030108872A1, “Genomics-assisted rapid identification of targets” (priority 2000, published 2003)

What was measured:
Assay type in all cases: cell-based
[1] = system: cells in which murA is regulated by PBAD; test: MIC by microbroth dilution in E. coli under-expressing murA; conditions: FIG. 6
Procedure: The wild-type gene murA, which encodes the enzyme UDP-N-acetylglucosamine enolpyruvate transferase, was knocked out in E. coli, and the gene was placed under ectopic expression in the yibD locus under regulation by PBAD with the regulator, L-arabinose.
(§1) Methods. […] IPTG was added to a final concentration of 0.1 mM and anhydrous-tetracycline was added to a final concentration of 100 ng/ml to the culture media for routine growth of GTC-EC#313 and GTC-EC#346, respectively.
(§2) The specificity and sensitivity of the resultant colonies to added drugs were followed by measuring the minimal inhibitory concentration (MIC) of trimethoprim, sulfamethozasone, phosphomycin and D-cycloserine at varying regulator levels. This was performed according to NCCLS (National Center for Clinical Laboratory Standards) recommendations(NCCLS, 1997, METHODS FOR DILUTION ANTIMICROBIAL SUSCEPTIBILITY TESTS FOR BACTERIA THAT GROW AEROBICALLY, 4th ed.; approved standard. NCCLS document M7-A4. NCCLS, Wayne, Pa.), in 100 μl volume in 96-well format, with serial two-fold dilutions of drug concentration.

E. coli strain WO-153 = test: Genome-wide E. coli ORFmer overexpression rescue (OER) assay
Procedure: Over expression Rescue Assays. Over expression assays were conducted with the E. coli strain WO-153 described in Table 7. Construction of WO-0153. […] The asmB1 mutation is a G to A transition at position 628 in the 1pxC gene. […] The tolC gene encodes an outer membrane protein that acts as a channel for the acrAB efflux pumps (See for example, Fralick, J. 1996. J. Bacteriol. 178:5801-5805). […] WO-0153 was constructed as follows. The asmB1 mutation was introduced into a DNA fragment containing the 1pxC gene and 1 kb of the 5′ end of the secA gene by site directed mutagenesis of the 1pxC gene using standard methods. A kan^R resistance cassette flanked by FRT sites was introduced 60 bp downstream of the 1pxC gene. The linear DNA construct was introduced into electrocompetent and recombinogenic E. coli KM354 (pTP223) as described by Murphy (See for example, Murphy, 1998, J. Bacteriol. 180: 2063-71). Transformants were selected on LB agar containing kanamycin (35 mcg/ml) and screened for sensitivity to novobiocin (20 mcg/ml). The presence of the asmB1 mutation in clones with the expected phenotype was verified by DNA sequence analysis. The kanR gene flanked by FRT sites was then excised from the 1pxC-secA intergenic region using a previously described method (See for example, Cherepanove, P. P, and Wackernagel, W. 1995. Gene 158: 9-14.). […] 178:5138-5143; Fralick, J. (1996). J. Bacteriol. 178:5801-5805; Fralick, J. A., et al. (1994) J. Bacteriol. 176:6404-6406; and Cherepanove, P. P, et al., (1995) Gene 158:9-14. […] Plasmid library DNA was transformed into WO-153 by electroporation as described above. Cells were collected from transformation plates by scraping and were equalized to an optical density of 1.53 on a Beckman DU650 spectrophotometer([…]). Groups of five libraries were mixed and frozen in LB media plus 10% (vol/vol) glycerol by immersion in a dry-ice/ethanol bath for 5 minutes.
Over-expression assays were performed in liquid media in a microtiter format, in a gradient plate format, or in a disk-diffusion format. The protocol used for the microtiter format was similar to the protocol described above for the MIC assay. Aliquots of 5 library pools spanning the genome were thawed at room temperature and 200 ul of each was inoculated into its own 20 ml of Mueller Hinton media containing ampicillin at 200 ug/ml and anhydrous tetracycline inducer as appropriate. Typically, replicates were performed using a number of final inducer concentrations, ranging from 0 to 100 ng/ml. Following an adequate mixing, 50 ul of inoculated media was mixed with 50 ul of the test antibiotic in Nunc brand 96-well microtiterplates. Typically, each group of five libraries was mixed with a range of concentrations of antibiotic spanning the minimum inhibitory concentration (MIC) of the antibiotic. […] Columns may contain 10 different groups of libraries as well as null vector and no innoculum controls. After mixing inoculum plus media with antibiotic, well contents were mixed by pipetting and incubated at 37° C. for 16 to 20 hours. Optical density at 600 nm was measured using a Molecular Devices SpectraMAX 250 spectrophotometer. […] Contents of wells showing rescue were transferred to LB agar plates containing ampicillin at 100 ug/ml, and were spread to obtain single colonies. Alternately, it is possible to maintain selection for the antibiotic being assayed by including it in the agar plates at this point.
OER Assay using Disk diffusion and Gradient Plate Assay formats. In the Disk diffusion plate format, the 3 inocula (see below) were plated on MHB plates containing ampicillin (100 mcg/ml) and anhydrous tetracycline (a-tet, 100 ng/ml). Two paper disks (6 mm diameter) containing 10×and 20×MIC of the test antiobiotic were placed on the surface of the plate.

[2] = system: B. subtilis NO-347 (BD170 thrC::Pspac-murA kanR ΔmurA::CmR); test: MIC by microbroth dilution in B. subtilis under-expressing murA; conditions: IPTG 0-0.1 mM, compared to the control strain, FIG. 10
Procedure: Materials and Methods. The materials are the same as discussed above. Plasmids are listed in Table 4 B. subtilis strains were routinely grown in LB media or on LB agar plates containing 1.5% agar (Sambrook et al., MOLECULAR CLONING: A LABORATORY MANUAL, 2nd ed., Cold Spring Harbor Laboratory Press, 1989). MIC determination is performed using microbroth dilution-cultures grown in Mueller Hinton broth in 96-well microtiter plates purchased from Nunc (Plates—Cat. No. 262162; Lids—Cat. No. 264122). When required, media were supplemented with 5 μg/ml chloramphenicol or 10 μg/ml kanamycin. IPTG was added to culture media at a final concentration of 0.05 mM for routine culture growth of B. subtilis NO-347 (BDI70 thrC::Pspac-murA kan^R ΔmurA::Cm^R), which is dependent on IPTG for growth.
The endogenous murA gene in NO-360 was deleted by allelic replacement as follows (see FIG. 9). DNA fragments flanking the 5′ and 3′ ends of the murA gene were amplified from B. subtilis 168 genomic DNA using primer pairs KO mura F1+R2 and KO murA F2+R1, respectively. The 5′ and 3′ flanking fragments were linked to the Cm^R gene from pEVP3 using the cross-over PCR technique with the primer pair KO mura F1+R1. The resulting PCR product (shown in FIG. 9B) was used to transform naturally competent B. subtilis NO-360. Cm^R clones were selected in the presence of 0.01 mM and 0.05 mM IPTG. Allelic replacement of murA in Cm^R clones was verified by PCR. Strain NO-347 (BD170 thrC::Pspac-murA Kan^R ΔmurA::Cm^R) was chosen for MIC determinations for phosphomycin in presence of various concentrations of the regulator IPTG.
MIC determinations. Determination of minimum inhibitory concentration (MIC) for phosphomycin, novobiocin, erythromycin and trimethoprim lactate were performed in 96-well microliter plates using the microbroth dilution technique as described in NCCLS. 1997. Methods for dilution antimicrobial susceptibility tests for bacteria that grow aerobically-fourth edition; approved standard. NCCLS document M7-A4. NCCLS, Wayne, Pa. For MIC determinations using strain NO-347, various concentrations (0-0.1 mM) were added to the media. Growth was quantitated by OD600 measurements using a SpectroMax 250 plate reader (Molecular Devices).

[3] = system: cells in which folA is regulated by PBAD, PLtetO-1, or Plac/ara-1; test: MIC by microbroth dilution in E. coli under-expressing folA; conditions: FIG. 5
Procedure: In another example, the wild-type native folA gene was knocked out, and a wild-type copy of the gene folA, which encodes the protein dihydrofolate reductase, was placed under ectopic expression in the yibD locus under regulation by PBAD with the regulator, L-arabinose. Dihydropteroate synthetase, the gene product of […], catalyzes the enzymatic reaction two steps before dihydrofolate reductase in the folate biosynthetic pathway.
as §1, §2

N[C@@H]1CONC1=O [D-cycloserine]
sensitivity on under-expression of murA [1]: hypersensitivity | identity of OER clones that were not the expected gene, by sequence analyses (E. coli strain WO-153): closely related ddlB gene | OER clones that were not the expected ddlA gene (E. coli strain WO-153; PCR verification of OER clones): 80%

CC[C@H]1OC(=O)[C@H](C)[C@@H](O[C@H]2C[C@@](C)(OC)[C@@H](O)[C@H](C)O2)[C@H](C)[C@@H](O[C@@H]2O[C@H](C)C[C@H](N(C)C)[C@H]2O)[C@](C)(O)C[C@@H](C)C(=O)[C@H](C)[C@@H](O)[C@]1(C)O [erythromycin]
sensitivity (MIC) on regulated under-expression of murA [2]: does not affect sensitivity

CO[C@@H]1[C@@H](OC(N)=O)[C@@H](O)[C@H](Oc2ccc3c(O)c(NC(=O)c4ccc(O)c(CC=C(C)C)c4)c(=O)oc3c2C)OC1(C)C [novobiocin]
sensitivity (MIC) on regulated under-expression of murA [2]: does not affect sensitivity

Cc1cc(NS(=O)(=O)c2ccc(N)cc2)no1 [sulfamethozasone]
MIC with decreasing regulator (L-arabinose) level [3]: decreases

Oc1cc(Cl)ccc1Oc1ccc(Cl)cc1Cl [triclosan]
PCR verification of OER clones: expected target gene (E. coli strain WO-153; liquid microtiter assay, expected targets folA, murA, fabI): expected target gene was identifed | PCR verification of OER clones: expected clone (E. coli strain WO-153; two plate assay format (disk diffusion, gradient plate)): expected clone was isolated
